From US11072584B2, “Carbon monoxide releasing norbornenone compounds” (OTAGO INNOVATION LIMITED, priority 2015, dated 2021)

Test system: cardiac tissue
Experiment: static storage of cardiac tissue sections, TTC tissue viability stain
Design: species or system Sprague Dawley (SD) rats
Settings: 3 μM in DMEM; 24 and 48 hours cool static storage
Protocol: The following protocol was used to assess the ex vivo protective effects of the oCOm compounds in solid, non-perfused biological tissues. Male Sprague Dawley (SD) rats (280-310 g) were decapitated and the hearts rapidly excised. Hearts were cut into 1 mm thick sections and placed in 3 ml of DMEM in sterile 24 well tissue culture plates. Two tissues sections from each heart were immediately stained without storing, with 1% 2,3,5-Triphenyltetrazolium chloride (TTC) in glucose supplemented DMEM for 15 minutes at 37° C. with continuous shaking. Theses tissues represent the baseline tissue viability prior to storage. This staining technique requires active dehydrogenase enzymes to be present in order to convert TCC to a brick red formazan pigment. […] Tissues were then stained with TTC and fixed as above. One control tissue section was left unstained for comparison. All samples were sectioned transversely, photographed and staining intensity assessed qualitatively.

In the case of `CC12C(=O)C(C)(C(c3ccccc3)=C1c1ccccc1)C1C(=O)N(CCN)C(=O)C12.O=C(O)C(F)(F)F` (stereo not shown) [DB-21, 2-(4,7-Dimethyl-1,3,8-trioxo-5,6-diphenyl-3a,4,7,7a-tetrahydro-1H-4,7-methanoisoindol-2(2H)-yl)ethanaminium 2,2,2-trifluoroacetate], the “tissue viability by TTC (formazan) staining (in words)” value is reported as “little staining was visible”.
